Patent publication US20060079497A1, “Lavendamycin analogues and methods of synthesizing and using lavendamycin analogues” (Ball State University, priority 2004, published 2006)
“And” between values parts separate entries of the source, which are not always exact repeats. Identical values can stand only once. Like-named read-outs stand apart in the source and are kept apart here.

Legend:
[1] = Cytotoxicity assay (MTT), human lymphocytic cell lines, pooled data; type: cell-based; details: H-9 and CEM inhibited by 50%, read-out: Mean CC50 (Human Cell Lines) ± SEM (no. of expts)
Description: (§1) Normal murine spleen cells were washed in HBSS, cultured at 2.5×10^6 or 5×10^6 cells per mL in RPMI 1640 (with Hepes) complete medium with 2 mM-L-glutamine, 1 mM sodium pyruvate, 0.05 mM β-mercaptoethanol, penicillin, streptomycin, and amphotericin B with 10% fetal calf serum and Concanavalin A (ConA) at 2.5 μg/mL in a 96-well microtiter plate. A range of diluted analogs were added to triplicate culture wells and the cells were incubated at 37° C. in 5% CO2. Wells containing cells, media and ConA were used as controls. Forty-eight hours post incubation, 20 μL of the vital dye MTT (3-[4,5-Dimethylthiazol-2-yl]-2,5-diphenyltetrazolium bromide; thiazolyl blue) at 5 mg/mL was added to each well and the cultures re-incubated for 4-6 hours. Following centrifugation, the supernatants were decanted and the stained cells were resuspended in 100 μL of 0.4% HCl acidified isopropanol. The optical densities of each well were read at 600 nm using a Cambridge Technologies series 700 microplate reader. The human lymphocytic cell lines CCRF-CEM (ATCC: HTB 176) and H-9 (ATCC: CCL 119) were subcultured from recently cultured cells grown in complete RPMI 1640 medium as described above but without the β-mercaptoethanol and ConA at 6.25×10^5 and 2×10^6 per mL in a 96 well culture plate. These cell numbers represented log phase and early stationary phase of the freshly cultured cells. As these cell lines rapidly reproduce without mitogenic stimulation, Con A was not used. A range of analogues or media alone was added in triplicate to the cultures and the cultures incubated, pulsed with MTT, harvested and their growth estimated as described above for the murine cultures. The CC50 or the concentration of drug which inhibited cell growth as estimated by MTT formazan production to 50% of that of untreated control cells was determined by linear interpolation for each lavendamycin analog.

[2] = biological target: T1, HIV-RT (Human immunodeficiency virus type 1 group M subtype B, UniProt P04585); test: Checkerboard combination of lavendamycin analogs with AZT-triphosphate in HIV-RT enzyme assay (Chou and Talalay); type: biochemical
T1 construct: 1 unit/mL of HIV-RT (Worthington Biochemical Corp., Freehold, N.J.); purchased Worthington Biochemical Corp., Freehold, N.J
Description: The results were analyzed by the method of Chou and Talalay based on the median-effect principle and represented by combination indices (CI) determined for each of the two drug combinations (e.g., see: Chou, T. C.; Talalay, P. “Quantitative Analysis of Dose-Effect Relationships: The Combined Effects of Multiple Drugs or Enzyme Inhibitors,” Adv. Enzyme Regul., 1984, 22, 27-65; and Chou, J.; Chou, T. C. “Dose-Effect Analysis with Microcomputers: Quantitation of ED50, LD50, Synergism, Antagonism, Low-Dose Risk, Receptor-Ligand Binding and Enzyme Kinetics,” In: A computer Software for IBM-PC and Manual, Cambridge, UK, Elsevier-Biosoft, 1987). This method involves the plotting of dose-effect curves for each agent and for each of the different combinations of the agents. The slope of the median-effect plot, which signifies the shape of the dose-effect curve, and the x intercept of the plot, which signifies the potency of each compound alone and each combination, were then used for a computerized calculation of a combination index.
The assay procedure described below is adapted from Okada et al. (Okada, H.; Mukai, H.; Inouye, Y; Nakamura, S. “Biological Properties of Streptonigrin Derivatives II. Inhibition of Reverse Transcriptase Activity,” J. Antibiot., 1986, 39, 306-308). The lavendamycin analogs were initially dissolved in DMSO at a concentration of 1 mg/mL. Occasionally, mild sonication and heat were used to dissolve the less soluble compounds. The dissolved analogs were then serially diluted in distilled water to achieve concentrations in the final reaction mixture ranging from 0.5-15 μM. In addition to the lavendamycin analogs, the final reaction mixture contained 100 mM Tris-HCl (pH 8.0), 5 mM MgCl2, 5 mM dithiothreitol, 60 mM NaCl, 0.2 mM [^3H] thymidine triphosphate(5 μCi well), 4 μg/mL poly (rA)-oligo(dT)12-18 (Amersham Pharmacia Biotech, Piscataway, N.J.) and 1 unit/mL of HIV-RT (Worthington Biochemical Corp., Freehold, N.J.) in a total volume of 300 μL. For each assay, the reaction mixture containing 8× buffer, double distilled H2O, ^3HTTP, template-primer and HIV-RT was pre-mixed in a 15-mL sterile tube in quantities required for the particular experiment. After adding the enzyme, the reaction mixture was mixed and kept on ice. The inhibitors, either AZT(Moravek Biochemicals, Brea, Calif.), analogs or both were added to appropriate wells in a 24 well microtiter plate and ddH2O was added to each well to bring the volume of all test wells to 100 μL. Two hundred μL of the chilled reaction mixture was then added to each of the test wells, mixed, and incubated for 1 hr at 37° C. Several control wells with no inhibitors were included on each test plate. After stopping the reactions with 25 μL 0.1 M EDTA, triplicate samples of 15 μL from each test well were spotted on DE81 ion exchange filter paper squares (Whatman Paper, Maidstone, England). After drying, each filter was washed for 10 minutes three times with 5% TCA-NHPO4, three times with 0.6M NaCl-[…] Na Citrate, one time with ddH2O and one time with 95% ethanol. After drying the individual filter papers were added to 5 mL Scintiverse E (Fisher Scientific, Chicago, Ill.) scintillation fluid and the amount of 3H-TTP uptake measured as counts per minute on a Beckman liquid scintillation counter. […] The results were then analyzed using Calcusyn, a windows software program for dose effect analysis designed by T. -C. Chou and M. P. Hayball and published by Biosoft® (UK).

[3] = Cytotoxicity assay (MTT), normal murine spleen cells stimulated with concanavalin A; type: cell-based; details: normal mouse spleen stimulated with concanavalin A inhibited by 50%, read-out: Mean CC50 (Normal Mouse Spleen) ± SEM (no. of expts)
Description: as §1

[4] = analogue 0.25 μM + AZT 0.007 μM, Trial 1
[5] = analogue 0.25 μM + AZT 0.007 μM, Trial 2
[6] = analogue 0.25 μM + AZT 0.01 μM, Trial 1
[7] = analogue 0.25 μM + AZT 0.01 μM, Trial 2
[8] = analogue 0.25 μM + AZT 0.02 μM, Trial 1
[9] = analogue 0.25 μM + AZT 0.02 μM, Trial 2
[10] = analogue 0.5 μM + AZT 0.007 μM, Trial 1
[11] = analogue 0.5 μM + AZT 0.007 μM, Trial 2
[12] = analogue 0.5 μM + AZT 0.01 μM, Trial 1
[13] = analogue 0.5 μM + AZT 0.01 μM, Trial 2
[14] = analogue 0.5 μM + AZT 0.02 μM, Trial 1
[15] = analogue 0.5 μM + AZT 0.02 μM, Trial 2
[16] = analogue 0.75 μM + AZT 0.01 μM, Trial 1
[17] = analogue 0.75 μM + AZT 0.01 μM, Trial 2
[18] = analogue 0.75 μM + AZT 0.02 μM, Trial 1
[19] = analogue 0.75 μM + AZT 0.02 μM, Trial 2
[20] = analogue 1.5 μM + AZT 0.007 μM, Trial 1
[21] = analogue 1.5 μM + AZT 0.007 μM, Trial 2
[22] = analogue 1.5 μM + AZT 0.01 μM, Trial 1
[23] = analogue 1.5 μM + AZT 0.01 μM, Trial 2
[24] = analogue 1.5 μM + AZT 0.02 μM, Trial 1
[25] = analogue 1.5 μM + AZT 0.02 μM, Trial 2

CC(=O)NC1=CC(=O)c2ccc(-c3nc(C(=O)O)cc4c3[nH]c3ccccc34)nc2C1=O [Compound 18, 7-N-Acetyldemethyllavendamycin]
CC50 at 48 h ([1]; human lymphocytic cell lines CCRF-CEM and H-9, pooled data): 81 ± 35 µM | Combination index [2]: 0.66 | Combination index [2, 4]: 0.39 | Combination index [2, 5]: 0.37 | Combination index [2, 6]: 0.44 | Combination index [2, 7]: 0.45 | Combination index [2, 8]: 0.59 | Combination index [2, 9]: 0.60 | Combination index [2, 10]: 0.40 | Combination index [2, 11]: 0.42 | Combination index [2, 12]: 0.51 | Combination index [2, 13]: 0.50 | Combination index [2, 14]: 0.97 | Combination index [2, 15]: 0.98 | Combination index [2, 16]: 0.59 | Combination index [2, 17]: 0.57 | Combination index [2, 18]: 0.95 | Combination index [2, 19]: 0.97 | Combination index [2, 20]: 1.00 | Combination index [2, 21]: 0.94 | Combination index [2, 22]: 0.90 | Combination index [2, 23]: 0.82 | Combination index [2, 24]: 2.00 | Combination index [2, 25]: 2.20 | combined effect with AZT-TP ([2]; analogue 1.5 μM together with AZT-TP 0.02 μM): antagonism | CC50 at 48 h ([3]; normal murine spleen cells stimulated with concanavalin A): 47 ± 8.5 µM

CCCCOC(=O)c1cc2c([nH]c3ccccc32)c(-c2ccc3c(n2)C(=O)C(NC(=O)CCC)=CC3=O)n1 [Compound 12, 7-N-n-Butyryidemethyllavendamycin n-Butyl Ester]
CC50 at 48 h [1]: 50 ± 15 µM | Combination index [2]: 1.30 and 1.60 | Combination index [2, 4]: 0.82 | Combination index [2, 5]: 0.83 | Combination index [2, 6]: 0.58 | Combination index [2, 7]: 0.58 | Combination index [2, 8]: 0.59 | Combination index [2, 9]: 0.50 | Combination index [2, 10]: 0.88 | Combination index [2, 11]: 0.71 | Combination index [2, 12]: 0.76 | Combination index [2, 13]: 0.76 | Combination index [2, 14]: 0.85 | Combination index [2, 15]: 0.93 | Combination index [2, 16]: 0.86 | Combination index [2, 17]: 0.99 | Combination index [2, 18]: 1.00 | Combination index [2, 19]: 0.92 | Combination index [2, 20]: 1.30 | Combination index [2, 21]: 1.20 | Combination index [2, 22]: 0.81 | Combination index [2, 23]: 0.91 | Combination index [2, 24]: 1.10 | Combination index [2, 25]: 0.96 | CC50 at 48 h [3]: 81 ± 17 µM
